Source: ChEMBL document CHEMBL1156829 (Proc Natl Acad Sci U S A, 2008)

Assays:
[1] = NOVARTIS: Cytotoxicity against human hepatocellular carcinoma cell line (Huh7); type: toxicity, cell-based, Huh-7; settings: Huh7 cells (hepatocellular carcinoma cell line)
[2] = system: Plasmodium falciparum; test: NOVARTIS: Inhibition of Plasmodium falciparum W2 (drug-resistant) proliferation in erythrocyte-based infection assay; type: functional, organism-based; settings: Plasmodium falciparum, W2; read-out: EC50
[3] = system: Plasmodium falciparum; test: NOVARTIS: Inhibition of Plasmodium falciparum 3D7 (drug-susceptible) proliferation in erythrocyte-based infection assay; type: functional, organism-based; settings: Plasmodium falciparum, 3D7

Compound	CC50 [1]	EC50 [2]	EC50 [3]
O[C@@H](c1cc(C(F)(F)F)nc2c(C(F)(F)F)cccc12)[C@H]1CCCCN1	> 6250 nM	2.37 nM	51.7 nM
O=C(c1ccco1)N1CCN(c2ccc([N+](=O)[O-])c(NC3CC3)c2)CC1	> 100000 nM	44.5 nM	100 nM
CCOC(=O)c1cn(CC)c2cc(N(C)CCc3ccc(OC)c(OC)c3)c(F)cc2c1=O	> 100000 nM	26.7 nM	103 nM
CCCCCc1cc(O)c2c3c(c(=O)oc2c1)CN(C)CC3	> 96800 nM	37.6 nM	49.4 nM
CCOC(=O)C1=C(C)NC2=C(C(=O)C(C(=O)OC)C(C)C2)C1c1cc(Br)c(OCC)c(OC)c1 (configuration not stated)	> 100000 nM	39.6 nM	255 nM
O=C(Cc1c(F)cccc1Cl)Nc1cc(C(=O)N2CCN(Cc3ccccc3)CC2)ccc1N1CC2CC(C1)c1cccc(=O)n1C2 (configuration not stated)	> 100000 nM	30 nM	67.2 nM
CCOC(=O)C1=C(C)NC2=C(C(=O)CC(c3ccc(OC)cc3)C2)C1c1ccccc1F (configuration not stated)	> 100000 nM	27.1 nM	74.1 nM
CCOC(=O)C1=C(C)NC2=C(C(=O)CC(c3ccc(OC)c(OC)c3)C2)C1c1ccccc1Br (configuration not stated)	> 100000 nM	26.7 nM	73.2 nM
COC(=O)C1=C(C)NC2=C(C(=O)CC(c3ccc(OC)c(OC)c3)C2)C1c1ccccc1C (configuration not stated)	> 100000 nM	31.7 nM	125 nM
O=C(N=CNNc1ccccc1F)c1cc(OCC(F)(F)F)ccc1OCC(F)(F)F	> 10000 nM	< 3.13 nM	> 532 nM
CCC(C)OC(=O)C1=C(C)NC2=C(C(=O)CC(c3ccc(OC)cc3)C2)C1c1ccc(O)cc1 (configuration not stated)	> 100000 nM	31.2 nM	500 nM
O=C(O)C(Cc1ccc([N+](=O)[O-])cc1)NS(=O)(=O)c1ccc(OC(F)(F)F)cc1 (configuration not stated)	> 10000 nM	3.29 nM	580 nM
O=C(Nc1ccc2nc3n(c(=O)c2c1)CCCCC3)C(=O)N1CCN(c2ccccc2)CC1	> 100000 nM	30.8 nM	133 nM
CCOC(=O)C1=C(C)NC2=C(C(=O)CC(c3ccc(OC)c(OC)c3)C2)C1c1cccc(Cl)c1Cl (configuration not stated)	> 100000 nM	30.5 nM	32.9 nM
CCCCNCCN1CCN(c2ccc3ccccc3c2)C[C@@H]1c1ccccc1	8160 nM	2.45 nM	34.5 nM
COc1ccc(C2CC(=O)C3=C(C2)NC(C)=C(C(=O)OC(C)C)C3c2cccc(C)c2)cc1OC (configuration not stated)	54800 nM	19.1 nM	82.1 nM
COc1ccc(C2CC(=O)C3=C(C2)NC(C)=C(C(=O)OC2CCCC2)C3c2ccc(Cl)cc2Cl)cc1 (configuration not stated)	> 100000 nM	34.7 nM	126 nM
COc1ccc(C2CC(=O)C3=C(C2)NC(C)=C(C(=O)OC2CCCC2)C3c2ccccc2)cc1 (configuration not stated)	> 100000 nM	33.5 nM	124 nM
COCCOC(=O)C1=C(C)NC2=C(C(=O)CC(c3ccc(OC)cc3)C2)C1c1ccc(Cl)cc1 (configuration not stated)	> 100000 nM	33.2 nM	167 nM
O=C(NCCCCCCNC(=O)Nc1ccc(C2=NCCCN2)cc1)Nc1ccc(C2=NCCCN2)cc1	> 10000 nM	< 3.28 nM	108 nM
COCCOC(=O)C1=C(C)NC2=C(C(=O)CC(c3ccc(OC)c(OC)c3)C2)C1c1ccccc1C (configuration not stated)	> 100000 nM	32.3 nM	110 nM
Cc1cc(C(=O)N2CCOc3c(cc(-c4csc5ccccc45)cc3OCCc3ccccn3)C2)n(C)n1	46900 nM	13.9 nM	32.5 nM

Compound	CC50 [1]	EC50 [2]	EC50 [3]
COC(=O)c1c(-c2c(Cl)cccc2Cl)noc1/C=C/Nc1ccc(Cl)cc1	> 10000 nM	< 2.95 nM	13.5 nM
COc1ccc(C2CC(=O)C3=C(C2)NC(C)=C(C(=O)OC(C)C)C3c2ccccc2Br)cc1 (configuration not stated)	> 100000 nM	28.5 nM	62 nM
CCOC(=O)C1=C(C)NC2=C(C(=O)CC(c3ccc(OC)c(OC)c3)C2)C1c1ccccc1C (configuration not stated)	> 100000 nM	27.4 nM	134 nM
Cc1ccc(-c2c3c(nc4sc(C(=O)Nc5ccc(F)cc5)c(N)c24)CCC3)cc1	> 100000 nM	27.2 nM	68.8 nM
Cc1cc(C)nc(/N=C(\N)Nc2ccccc2O)n1	> 100000 nM	36.2 nM	379 nM
Oc1ccc(-c2ccc(F)cc2)cc1CNC1CCCCC1	17400 nM	6.28 nM	40.2 nM
CCOC(=O)c1ccc2c(c1)[C@@H]1C=CC[C@@H]1[C@H](c1cccc(OC)c1OC)N2	> 100000 nM	31.8 nM	471 nM
CC1=C(C(=O)OC(C)C)C(c2ccccc2F)C2=C(CC(c3ccc(Cl)cc3)CC2=O)N1 (configuration not stated)	> 100000 nM	35.1 nM	109 nM
CC(=O)NC(c1ccc(N(C)C)cc1)c1cc(Cl)c2cccnc2c1O (configuration not stated)	> 100000 nM	39.3 nM	651 nM
COC(=O)C1=C(C)NC(=Cc2cc(C)n(-c3ccccc3F)c2C)C1=O	> 100000 nM	38.3 nM	20 nM
COCCOC(=O)C1=C(C)NC2=C(C(=O)CC(c3ccc(OC)c(OC)c3)C2)C1c1ccc(F)cc1 (configuration not stated)	46800 nM	17.7 nM	38.2 nM
CCOC(=O)C1=C(C)NC2=C(C(=O)C(C(=O)OC)C(C)C2)C1c1cc(Br)c(OC)c(OC)c1 (configuration not stated)	> 100000 nM	40.4 nM	537 nM
N#Cc1c2c(c(N3CCN(Cc4ccc(F)cc4)CC3)n3c1nc1ccccc13)CCC2	> 100000 nM	37.7 nM	19.8 nM
CCOC(=O)C(=O)N1c2ccc(C)cc2-c2c(ssc2=S)C1(C)C	> 100000 nM	37.7 nM	46.5 nM
CCOc1ccc(NC(=O)C2c3ccccc3C(=O)N(CC(C)C)C2c2cccs2)cc1 (configuration not stated)	> 100000 nM	36.7 nM	78.3 nM
O[Si](CCCN1CCCCC1)(c1ccccc1)C1CCCCC1 (configuration not stated)	33000 nM	12.1 nM	23.6 nM
COc1ccc(C2CC(=O)C3=C(C2)NC(C)=C(C(=O)OC2CCCC2)C3c2ccc(SC)cc2)cc1OC (configuration not stated)	> 100000 nM	36.5 nM	249 nM
CCC(C)OC(=O)C1=C(C)NC2=C(C(=O)CC(c3ccc(Cl)cc3)C2)C1c1ccc(Cl)cc1 (configuration not stated)	> 100000 nM	43.8 nM	216 nM
CCOC(=O)C1=C(C)NC2=C(C(=O)CC(c3ccc(Cl)cc3)C2)C1c1ccc(F)cc1 (configuration not stated)	> 100000 nM	42.8 nM	95 nM
COc1ccc(C2CC(=O)C3=C(C2)NC(C)=C(C(=O)OC2CCCC2)C3c2ccc(F)cc2)cc1 (configuration not stated)	> 100000 nM	41.6 nM	98.6 nM
Cc1nc(-c2ccccc2)nc(C(=O)N2CCN(C(=O)NC3CCCCC3)C(C)C2)c1C(=O)OC(C)C (configuration not stated)	> 100000 nM	41.7 nM	84.4 nM
c1ccc([B-](c2ccccc2)(c2ccccc2)c2ccccc2)cc1	> 100000 nM	44.8 nM	124 nM

Compound	CC50 [1]	EC50 [2]	EC50 [3]
CCC(=O)Nc1cc(NC(=O)CSc2nc(C)c(CC)c(O)n2)ccc1C	3920 nM	1.61 nM	> 1250 nM
CCCOC(=O)C1=C(C)NC2=C(C(=O)CC(c3ccc(OC)c(OC)c3)C2)C1c1ccccc1Cl (configuration not stated)	> 100000 nM	44.8 nM	66.2 nM
COc1ccc(C2CC3=NC(C)=C(C(=O)OC(C)C)C(c4ccccc4OC)C3=C(O)C2)cc1OC (configuration not stated)	> 100000 nM	39.8 nM	91.9 nM
CC(CCc1ccccc1)NCC(O)c1cccc([N+](=O)[O-])c1 (configuration not stated)	42500 nM	14.5 nM	205 nM
COC(=O)C1=C(C)NC2=C(C(=O)CC(c3ccc(OC)c(OC)c3)C2)C1c1ccccc1F (configuration not stated)	> 100000 nM	30.6 nM	50.5 nM
CCOC(=O)C1=C(CC)NC2=C(C(=O)CC(C)(C)C2)C1c1ccc(Br)cc1 (configuration not stated)	> 100000 nM	44.1 nM	408 nM
O=[N+]([O-])c1ccc(S(=O)(=O)N2CCN(C(=S)NCc3ccccc3)CC2)cc1	> 100000 nM	38 nM	79.6 nM
O=S(=O)(ON=C1CCCc2sc(Cl)cc21)c1ccccc1	> 100000 nM	40.9 nM	158 nM
CC1CCC2C(C)C(O)OC3OC4(C)CCC1C32OO4 (configuration not stated)	> 10000 nM	3.31 nM	7.05 nM
Cn1c2c([n+](C)c1CCl)C(=O)c1ccccc1C2=O	> 10000 nM	3.55 nM	3.1 nM
CCCOC(=O)C1=C(C)NC2=C(C(=O)CC(c3ccc(OC)cc3)C2)C1c1cccc(Cl)c1Cl (configuration not stated)	> 100000 nM	30.8 nM	233 nM
COc1ccc(OC)c(-c2ccc(O)c(CNCC3(N4CCCCC4)CCCCC3)c2)c1	38000 nM	11.3 nM	43.7 nM
CN(c1ccc(Br)cc1)S(=O)(=O)c1ccc2[nH]cc(C(=O)N3CCN(c4ccccc4)CC3)c(=O)c2c1	> 10000 nM	< 2.83 nM	> 1250 nM
Oc1ccc(-c2ccc3c(c2)OCO3)cc1CNCC1(N2CCCCC2)CCCCC1	> 100000 nM	35.4 nM	291 nM
COc1cccc(-c2ccc(O)c(CNCC3CCCCC3)c2)n1	46600 nM	17.7 nM	58.5 nM
COc1ccc(C2CC(=O)C3=C(C2)NC(C)=C(C(=O)OC(C)C)C3c2ccc([N+](=O)[O-])cc2)cc1OC (configuration not stated)	> 100000 nM	31.8 nM	31.9 nM
CCOC(=O)C1=C(C)NC2=C(C(=O)CC(c3ccccc3)C2)C1c1ccccc1Cl (configuration not stated)	> 100000 nM	34.9 nM	251 nM
COc1ccc(C2CC(=O)C3=C(C2)NC(C)=C(C(=O)OC(C)C)C3c2ccccc2Br)cc1OC (configuration not stated)	23300 nM	7.84 nM	13.7 nM
CCOC(=O)C1=C(C)NC2=C(C(=O)CC(c3ccc(Cl)cc3)C2)C1c1ccccc1Cl (configuration not stated)	> 100000 nM	40.8 nM	44.2 nM
CCCOC(=O)C1=C(C)NC2=C(C(=O)CC(c3ccc(OC)cc3)C2)C1c1cccc(F)c1 (configuration not stated)	> 100000 nM	32.9 nM	72.4 nM
